{"source": "patent US20230167467A1", "about": "“METHODS AND COMPOSITIONS FOR THE PRODUCTION OF ISOBUTENE” (University of Alaska Anchorage, priority 2020, published 2023)", "system": "Engineered strains of E. coli", "assay_type": "cell-based", "key": {"[1]": {"conditions": "after solvent exposure, vs positive control"}}, "data": [{"smiles": "CCCCCC", "note": "[hexane]", "values": [{"measurement": "expression of acid resistance genes (gad, adi families)", "value": "downregulated"}, {"measurement": "expression of chaperone proteins groLS, spy, and dnaJK", "value": "highly upregulated"}, {"measurement": "expression of dihydroxyacetone kinase genes dhaKLM", "value": "upregulated"}, {"measurement": "expression of flagellar protein synthesis and assembly genes", "value": "downregulated"}, {"measurement": "expression of gadE and adiY", "value": "significantly downregulated"}, {"measurement": "expression of galactitol metabolism genes gatABD", "value": "upregulated"}, {"measurement": "expression of glpABC (glycerol to glycerone phosphate)", "value": "upregulated"}, {"measurement": "expression of heat shock proteins and chaperones hslJORUV", "value": "strongest increases"}, {"measurement": "expression of ibpAB and clpAB (protein protection and repair)", "value": "strongest increases"}, {"measurement": "expression of marABC (multiple antibiotic resistance)", "value": "upregulated"}, {"measurement": "expression of nitrate reductase genes narGHJKP", "value": "upregulated"}, {"measurement": "expression of phage shock genes pspABCDE", "value": "highly upregulated"}, {"measurement": "change in expression of gene adiA", "setting": "[1]", "value": "−4.64 ± 0.88"}, {"measurement": "change in expression of gene adiC", "setting": "[1]", "value": "−4.53 ± 1.04"}, {"measurement": "change in expression of gene adiY", "setting": "[1]", "value": "−3.19 ± 0.66"}, {"measurement": "change in expression of gene bhsA", "setting": "[1]", "value": "3.01 ± 0.60"}, {"measurement": "change in expression of gene bssR", "setting": "[1]", "value": "1.50 ± 0.44"}, {"measurement": "change in expression of gene bssS", "setting": "[1]", "value": "5.47 ± 0.84"}, {"measurement": "change in expression of gene clpA", "setting": "[1]", "value": "2.49 ± 0.63"}, {"measurement": "change in expression of gene clpB", "setting": "[1]", "value": "5.02 ± 0.69"}, {"measurement": "change in expression of gene clpP", "setting": "[1]", "value": "1.52 ± 0.59"}, {"measurement": "change in expression of gene coaA", "setting": "[1]", "value": "−2.34 ± 0.88"}, {"measurement": "change in expression of gene coaD", "setting": "[1]", "value": "0.57 ± 0.90"}, {"measurement": "change in expression of gene cspA", "setting": "[1]", "value": "−4.08 ± 0.57"}, {"measurement": "change in expression of gene cspB", "setting": "[1]", "value": "−4.25 ± 1.30"}, {"measurement": "change in expression of gene cspC", "setting": "[1]", "value": "−2.22 ± 0.90"}, {"measurement": "change in expression of gene cspD", "setting": "[1]", "value": "2.07 ± 0.57"}, {"measurement": "change in expression of gene cspE", "setting": "[1]", "value": "−0.53 ± 0.63"}, {"measurement": "change in expression of gene cspF", "setting": "[1]", "value": "−3.67 ± 1.04"}, {"measurement": "change in expression of gene dhaK", "setting": "[1]", "value": "3.83 ± 0.58"}, {"measurement": "change in expression of gene dhaL", "setting": "[1]", "value": "2.77 ± 0.62"}, {"measurement": "change in expression of gene dnaJ", "setting": "[1]", "value": "4.46 ± 0.69"}, {"measurement": "change in expression of gene dnaK", "setting": "[1]", "value": "4.31 ± 0.66"}, {"measurement": "change in expression of gene fabA", "setting": "[1]", "value": "−0.96 ± 0.75"}, {"measurement": "change in expression of gene fabB", "setting": "[1]", "value": "2.15 ± 0.66"}, {"measurement": "change in expression of gene fabD", "setting": "[1]", "value": "−0.89 ± 0.52"}, {"measurement": "change in expression of gene flgA", "setting": "[1]", "value": "−2.91 ± 1.55"}, {"measurement": "change in expression of gene flgB", "setting": "[1]", "value": "−6.86 ± 1.62"}, {"measurement": "change in expression of gene flgC", "setting": "[1]", "value": "−7.12 ± 2.02"}, {"measurement": "change in expression of gene flgD", "setting": "[1]", "value": "−6.97 ± 1.94"}, {"measurement": "change in expression of gene flgE", "setting": "[1]", "value": "−5.83 ± 1.20"}, {"measurement": "change in expression of gene flgF", "setting": "[1]", "value": "−5.93 ± 1.66"}, {"measurement": "change in expression of gene flgG", "setting": "[1]", "value": "−5.59 ± 1.51"}, {"measurement": "change in expression of gene flgH", "setting": "[1]", "value": "−4.58 ± 1.75"}, {"measurement": "change in expression of gene gabD", "setting": "[1]", "value": "−1.81 ± 1.34"}, {"measurement": "change in expression of gene gabP", "setting": "[1]", "value": "−3.20 ± 1.33"}, {"measurement": "change in expression of gene gabT", "setting": "[1]", "value": "−1.73 ± 1.30"}, {"measurement": "change in expression of gene gadA", "setting": "[1]", "value": "−1.47 ± 0.68"}, {"measurement": "change in expression of gene gadB", "setting": "[1]", "value": "−0.69 ± 0.80"}, {"measurement": "change in expression of gene gadC", "setting": "[1]", "value": "−0.25 ± 0.80"}, {"measurement": "change in expression of gene gadE", "setting": "[1]", "value": "−2.22 ± 0.60"}, {"measurement": "change in expression of gene gadW", "setting": "[1]", "value": "−4.92 ± 0.97"}, {"measurement": "change in expression of gene gadX", "setting": "[1]", "value": "−2.95 ± 0.57"}, {"measurement": "change in expression of gene gadY", "setting": "[1]", "value": "−5.22 ± 0.81"}, {"measurement": "change in expression of gene glpA", "setting": "[1]", "value": "7.69 ± 0.87"}, {"measurement": "change in expression of gene glpB", "setting": "[1]", "value": "5.40 ± 0.63"}, {"measurement": "change in expression of gene glpC", "setting": "[1]", "value": "6.04 ± 0.79"}, {"measurement": "change in expression of gene groL", "setting": "[1]", "value": "4.16 ± 0.57"}, {"measurement": "change in expression of gene groS", "setting": "[1]", "value": "4.25 ± 0.50"}, {"measurement": "change in expression of gene hchA", "setting": "[1]", "value": "0.77 ± 0.60"}, {"measurement": "change in expression of gene hslJ", "setting": "[1]", "value": "2.29 ± 0.65"}, {"measurement": "change in expression of gene hslO", "setting": "[1]", "value": "3.04 ± 0.64"}, {"measurement": "change in expression of gene hslR", "setting": "[1]", "value": "3.21 ± 0.65"}, {"measurement": "change in expression of gene hslU", "setting": "[1]", "value": "3.61 ± 0.55"}, {"measurement": "change in expression of gene hslV", "setting": "[1]", "value": "2.94 ± 0.61"}, {"measurement": "change in expression of gene ibpA", "setting": "[1]", "value": "7.63 ± 1.21"}, {"measurement": "change in expression of gene ibpB", "setting": "[1]", "value": "8.41 ± 1.50"}, {"measurement": "change in expression of gene lhgO", "setting": "[1]", "value": "−1.20 ± 1.67"}, {"measurement": "change in expression of gene lipA", "setting": "[1]", "value": "0.42 ± 0.59"}, {"measurement": "change in expression of gene lipB", "setting": "[1]", "value": "−0.05 ± 0.63"}, {"measurement": "change in expression of gene narG", "setting": "[1]", "value": "4.03 ± 0.65"}, {"measurement": "change in expression of gene narH", "setting": "[1]", "value": "3.23 ± 0.61"}, {"measurement": "change in expression of gene narI", "setting": "[1]", "value": "2.02 ± 0.92"}, {"measurement": "change in expression of gene narJ", "setting": "[1]", "value": "2.26 ± 0.68"}, {"measurement": "change in expression of gene narK", "setting": "[1]", "value": "2.20 ± 0.84"}, {"measurement": "change in expression of gene potA", "setting": "[1]", "value": "−2.87 ± 0.80"}, {"measurement": "change in expression of gene potB", "setting": "[1]", "value": "−2.22 ± 1.29"}, {"measurement": "change in expression of gene potC", "setting": "[1]", "value": "−1.06 ± 1.18"}, {"measurement": "change in expression of gene pspA", "setting": "[1]", "value": "8.97 ± 0.55"}, {"measurement": "change in expression of gene pspB", "setting": "[1]", "value": "7.11 ± 0.68"}, {"measurement": "change in expression of gene rpoA", "setting": "[1]", "value": "0.76 ± 0.44"}, {"measurement": "change in expression of gene rpoB", "setting": "[1]", "value": "0.54 ± 0.40"}, {"measurement": "change in expression of gene rpoC", "setting": "[1]", "value": "1.02 ± 0.39"}, {"measurement": "change in expression of gene rpoD", "setting": "[1]", "value": "3.14 ± 0.70"}, {"measurement": "change in expression of gene rpoE", "setting": "[1]", "value": "−2.64 ± 0.62"}, {"measurement": "change in expression of gene rpoH", "setting": "[1]", "value": "0.31 ± 0.52"}, {"measurement": "change in expression of gene rpoN", "setting": "[1]", "value": "−1.24 ± 0.49"}, {"measurement": "change in expression of gene rpoS", "setting": "[1]", "value": "0.42 ± 0.47"}, {"measurement": "change in expression of gene rpoZ", "setting": "[1]", "value": "−0.98 ± 0.53"}, {"measurement": "change in expression of gene spy", "setting": "[1]", "value": "4.12 ± 0.87"}, {"measurement": "change in expression of gene tatA", "setting": "[1]", "value": "−0.89 ± 0.51"}, {"measurement": "change in expression of gene tatB", "setting": "[1]", "value": "−0.66 ± 0.58"}, {"measurement": "change in expression of gene tatC", "setting": "[1]", "value": "−1.03 ± 1.08"}, {"measurement": "change in expression of gene tatD", "setting": "[1]", "value": "−2.65 ± 1.13"}, {"measurement": "change in expression of gene tatE", "setting": "[1]", "value": "0.78 ± 0.63"}, {"measurement": "number of genes with significant changes in expression", "setting": "vs control, Bon Ferroni corrected p-value<0.05", "value": 535, "unit": "genes"}]}]}
